Measurements reported in the supplement of paper PMC11061612.

Columns and labels:
Capivasertib = compound: C1CN(CCC1(C(=O)N[C@@H](CCO)C2=CC=C(C=C2)Cl)N)C3=NC=NC4=C3C=CN4 [Capivasertib]
In short: (§1)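 Cancer cell lines in 1536-well plates (7.5 μl DMEM/F12 or RPMI, 10% FBS) were held 24 hours at 37°C and 5% CO2 and then dosed for 72 hours at a final DMSO of typically 0.2%. Viability was taken from CellTiter-Glo 2.0 luminescence, scaled between blank-well and DMSO-well means. Curves were fitted as two-parameter logistic models with a non-linear mixed effects model, from which the single-agent IC50 was taken.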

AZD1775 = compound: C=CCn1c(=O)c2cnc(Nc3ccc(N4CCN(C)CC4)cc3)nc2n1-c1cccc(C(C)(C)O)n1 [AZD1775]; settings: max 3 µM
In short: as §1

Trametinib = compound: CC(=O)Nc1cccc(-n2c(=O)n(C3CC3)c(=O)c3c(Nc4ccc(I)cc4F)n(C)c(=O)c(C)c32)c1 [Trametinib]; settings: max 1 µM
In short: as §1

Palbociclib = compound: CC(=O)c1c(C)c2cnc(Nc3ccc(N4CCNCC4)cn3)nc2n(C2CCCC2)c1=O [Palbociclib]; settings: max 10 µM
In short: as §1

AZD1390 = compound: CC(C)n1c(=O)n(C)c2cnc3cc(F)c(-c4ccc(OCCCN5CCCCC5)nc4)cc3c21 [AZD1390]; settings: max 0.3 µM
In short: as §1

Venetoclax = compound: CC1(C)CCC(CN2CCN(c3ccc(C(=O)NS(=O)(=O)c4ccc(NCC5CCOCC5)c([N+](=O)[O-])c4)c(Oc4cnc5[nH]ccc5c4)c3)CC2)=C(c2ccc(Cl)cc2)C1 [Venetoclax]; settings: max 1 µM
In short: as §1

Dasatinib = compound: CC1=C(C(=CC=C1)Cl)NC(=O)C2=CN=C(S2)NC3=CC(=NC(=N3)C)N4CCN(CC4)CCO [Dasatinib]; settings: max 2 µM
In short: as §1

SG3199 = compound: CC1=CN2[C@@H](C1)C=NC3=CC(=C(C=C3C2=O)OC)OCCCCCOC4=C(C=C5C(=C4)N=C[C@@H]6CC(=CN6C5=O)C)OC [SG3199]; settings: max 0.001 µM
In short: as §1

AZD2811 = compound: CCN(CCO)CCCOc1ccc2c(Nc3cc(CC(=O)Nc4cccc(F)c4)[nH]n3)ncnc2c1 [AZD2811]; settings: max 1 µM
In short: as §1

SN-38 = compound: CCc1c2c(nc3ccc(O)cc13)-c1cc3c(c(=O)n1C2)COC(=O)[C@]3(O)CC [SN-38]; settings: max 0.3 µM
In short: as §1

AZD0156 = compound: CN(C)CCCOc1ccc(-c2ccc3ncc4c(c3c2)n(C2CCOCC2)c(=O)n4C)cn1 [AZD0156]; settings: max 3 µM
In short: as §1

AZD4320 = compound: CN(CC[C@H](CSC1=CC=CC=C1)NC2=C(C=C(C=C2)S(=O)(=O)NC(=O)C3=CC=C(C=C3)N4CCC(CC4)[C@H](C5=CC=CC=C5C6=CC=C(C=C6)Cl)O)S(=O)(=O)C(F)(F)F)CCO [AZD4320]; settings: max 1 µM
In short: as §1

Alisertib = compound: COc1cc(Nc2ncc3c(n2)-c2ccc(Cl)cc2C(c2c(F)cccc2OC)=NC3)ccc1C(=O)O [Alisertib]; settings: max 10 µM
In short: as §1

Gefitinib = compound: COc1cc2ncnc(Nc3ccc(F)c(Cl)c3)c2cc1OCCCN1CCOCC1 [Gefitinib]; settings: max 10 µM
In short: as §1

Prexasertib = compound: COc1cccc(OCCCN)c1-c1cc(Nc2cnc(C#N)cn2)n[nH]1 [Prexasertib]; settings: max 1 µM
In short: as §1

Doxorubicin = compound: COc1cccc2c1C(=O)c1c(O)c3c(c(O)c1C2=O)C[C@@](O)(C(=O)CO)C[C@@H]3O[C@H]1C[C@H](N)[C@H](O)[C@H](C)O1 [Doxorubicin]; settings: max 1 µM
In short: as §1

AZD5153 = compound: COc1nnc2ccc(N3CCC(c4ccc(OCCN5CCN(C)C(=O)[C@H]5C)cc4)CC3)nn12 [AZD5153]; settings: max 1 µM
In short: as §1

Lapatinib = compound: CS(=O)(=O)CCNCc1ccc(-c2ccc3ncnc(Nc4ccc(OCc5cccc(F)c5)c(Cl)c4)c3c2)o1 [Lapatinib]; settings: max 10 µM
In short: as §1

AZD8186 = compound: C[C@@H](Nc1cc(F)cc(F)c1)c1cc(C(=O)N(C)C)cc2c(=O)cc(N3CCOCC3)oc12 [AZD8186]; settings: max 3 µM
In short: as §1

Crizotinib = compound: C[C@@H](Oc1cc(-c2cnn(C3CCNCC3)c2)cnc1N)c1c(Cl)ccc(F)c1Cl [Crizotinib]; settings: max 10 µM
In short: as §1

Savolitinib = compound: C[C@@H](c1ccc2nccn2c1)n1nnc2ncc(-c3cnn(C)c3)nc21 [Savolitinib]; settings: max 1 µM
In short: as §1

AZD6738 = compound: C[C@@H]1COCCN1C2=NC(=NC(=C2)C3(CC3)[S@](=N)(=O)C)C4=C5C=CNC5=NC=C4 [AZD6738]; settings: max 10 µM
In short: as §1

AZD5991 = compound: Cc1c2c(nn1C)CSCc1cc(n(C)n1)CSc1cc(c3ccccc3c1)OCCCc1c(C(=O)O)n(C)c3c-2c(Cl)ccc13 [AZD5991]; settings: max 1 µM
In short: as §1

AZD7648 = compound: Cc1cc2ncnn2cc1Nc1ncc2c(n1)n(C1CCOCC1)c(=O)n2C [AZD7648]; settings: max 10 µM
In short: as §1

Taselisib = compound: Cc1nc(-c2cn3c(n2)-c2ccc(-c4cnn(C(C)(C)C(N)=O)c4)cc2OCC3)n(C(C)C)n1 [Taselisib]; settings: max 10 µM
In short: as §1

Selumetinib = compound: Cn1cnc2c(F)c(Nc3ccc(Br)cc3Cl)c(C(=O)NOCCO)cc21 [Selumetinib]
In short: as §1

Olaparib = compound: O=C(c1cc(Cc2n[nH]c(=O)c3ccccc23)ccc1F)N1CCN(C(=O)C2CC2)CC1 [Olaparib]
In short: as §1

Cell Line | IC50, cell viability 72 h (Capivasertib; max 10 µM) | IC50, cell viability 72 h (AZD1775) | IC50, cell viability 72 h (Trametinib) | IC50, cell viability 72 h (Palbociclib) | IC50, cell viability 72 h (AZD1390) | IC50, cell viability 72 h (Venetoclax) | IC50, cell viability 72 h (Dasatinib) | IC50, cell viability 72 h (SG3199) | IC50, cell viability 72 h (AZD2811) | IC50, cell viability 72 h (SN-38) | IC50, cell viability 72 h (AZD0156) | IC50, cell viability 72 h (AZD4320) | IC50, cell viability 72 h (Alisertib) | IC50, cell viability 72 h (Gefitinib) | IC50, cell viability 72 h (Prexasertib) | IC50, cell viability 72 h (Doxorubicin) | IC50, cell viability 72 h (AZD5153) | IC50, cell viability 72 h (Lapatinib) | IC50, cell viability 72 h (AZD8186) | IC50, cell viability 72 h (Crizotinib) | IC50, cell viability 72 h (Savolitinib) | IC50, cell viability 72 h (AZD6738) | IC50, cell viability 72 h (AZD5991) | IC50, cell viability 72 h (AZD7648) | IC50, cell viability 72 h (Taselisib) | IC50, cell viability 72 h (Selumetinib; max 10 µM) | IC50, cell viability 72 h (Olaparib; max 10 µM) | IC50, cell viability 72 h (Capivasertib; max 3 µM) | IC50, cell viability 72 h (Selumetinib; max 3 µM) | IC50, cell viability 72 h (Olaparib; max 3 µM)
CHP-212 (Neuroblastoma) | > 10000 nM | 221 nM | < 1 nM | 3360 nM | > 300 nM | > 1000 nM | 59.6 nM | > 1 nM | 169 nM | 17.5 nM | > 3000 nM | > 1000 nM | 64.3 nM | > 10000 nM | 51.5 nM | 254 nM | 59.2 nM | > 10000 nM | > 3000 nM | 2070 nM | > 1000 nM | 1830 nM | 257 nM | > 10000 nM | 1080 nM | 12 nM | > 10000 nM | – | – | –
COLO-678 (Colorectal Carcinoma) | > 10000 nM | > 3000 nM | 264 nM | > 10000 nM | > 300 nM | > 1000 nM | > 2000 nM | > 1 nM | > 1000 nM | > 300 nM | > 3000 nM | > 1000 nM | > 10000 nM | > 10000 nM | > 1000 nM | > 1000 nM | > 1000 nM | > 10000 nM | > 3000 nM | > 10000 nM | > 1000 nM | > 10000 nM | > 1000 nM | > 10000 nM | > 10000 nM | 3440 nM | > 10000 nM | – | – | –
DiFi (Colorectal Carcinoma) | > 10000 nM | 1420 nM | 42.8 nM | > 10000 nM | > 300 nM | > 1000 nM | > 2000 nM | > 1 nM | 595 nM | 33.3 nM | > 3000 nM | > 1000 nM | 5960 nM | 52.4 nM | 16.7 nM | 961 nM | 403 nM | 315 nM | > 3000 nM | > 10000 nM | > 1000 nM | 3530 nM | > 1000 nM | > 10000 nM | 606 nM | 7260 nM | > 10000 nM | – | – | –
EVSA-T (Breast Carcinoma) | 289 nM | > 3000 nM | > 1000 nM | > 10000 nM | > 300 nM | > 1000 nM | > 2000 nM | > 1 nM | > 1000 nM | > 300 nM | > 3000 nM | > 1000 nM | 6350 nM | > 10000 nM | > 1000 nM | > 1000 nM | 65.2 nM | 4490 nM | 199 nM | 3360 nM | > 1000 nM | > 10000 nM | 56.1 nM | > 10000 nM | 1050 nM | > 10000 nM | > 10000 nM | – | – | –
HDQ-P1 (Breast Carcinoma) | > 10000 nM | 565 nM | > 1000 nM | > 10000 nM | > 300 nM | > 1000 nM | 103 nM | > 1 nM | > 1000 nM | 95.8 nM | > 3000 nM | > 1000 nM | > 10000 nM | > 10000 nM | 530 nM | > 1000 nM | > 1000 nM | > 10000 nM | > 3000 nM | > 10000 nM | > 1000 nM | > 10000 nM | > 1000 nM | > 10000 nM | 4570 nM | > 10000 nM | > 10000 nM | – | – | –
HL-60 (Acute Myeloid Leukemia) | > 10000 nM | 1670 nM | 12.4 nM | > 10000 nM | > 300 nM | 80.3 nM | > 2000 nM | > 1 nM | 30.6 nM | 6.04 nM | > 3000 nM | 32.7 nM | 407 nM | > 10000 nM | 16.6 nM | 159 nM | 37 nM | > 10000 nM | > 3000 nM | 5820 nM | > 1000 nM | 7320 nM | 35.7 nM | > 10000 nM | > 10000 nM | 642 nM | > 10000 nM | – | – | –
KARPAS-45 (T-Lymphoblastic Leukemia) | 3210 nM | 243 nM | > 1000 nM | 624 nM | > 300 nM | > 1000 nM | 937 nM | > 1 nM | 6.87 nM | > 300 nM | > 3000 nM | 52.1 nM | 86.3 nM | 9060 nM | 33.6 nM | > 1000 nM | 25.1 nM | 4370 nM | > 3000 nM | 1170 nM | > 1000 nM | 3140 nM | 93.1 nM | > 10000 nM | 1450 nM | > 10000 nM | > 10000 nM | – | – | –
KCL-22 (Chronic Myelogenous Leukemia) | > 10000 nM | 525 nM | 915 nM | > 10000 nM | > 300 nM | > 1000 nM | < 2 nM | > 1 nM | > 1000 nM | 37.9 nM | > 3000 nM | > 1000 nM | 8160 nM | > 10000 nM | 13.8 nM | 335 nM | 273 nM | > 10000 nM | > 3000 nM | 2010 nM | > 1000 nM | 927 nM | 369 nM | > 10000 nM | > 10000 nM | > 10000 nM | > 10000 nM | – | – | –
NCI-H847 (Small Cell Lung Carcinoma) | – | 143 nM | > 1000 nM | – | – | > 1000 nM | – | > 1 nM | 58.4 nM | 16 nM | > 3000 nM | 15.6 nM | 10.1 nM | – | 15.1 nM | 281 nM | – | – | 1950 nM | – | – | 901 nM | 665 nM | 5200 nM | 2330 nM | – | 6860 nM | > 3000 nM | > 3000 nM | –
P12-ICHIKAWA (T-Lymphoblastic Leukemia) | 3170 nM | 262 nM | > 1000 nM | 1600 nM | > 300 nM | > 1000 nM | > 2000 nM | – | 15.4 nM | 1.61 nM | > 3000 nM | 37.3 nM | 38.1 nM | > 10000 nM | 17.3 nM | – | 89.1 nM | > 10000 nM | > 3000 nM | 2230 nM | > 1000 nM | 1020 nM | 252 nM | > 10000 nM | > 10000 nM | > 10000 nM | – | – | – | > 3000 nM
